Patent publication US20130190407A1, “CALCIUM RECEPTOR-ACTIVE MOLECULES” (NPS Pharmaceuticals, Inc., priority 1991, published 2013)

Legend:
Format in all cases: cell-based
Bovine parathyroid cells = conditions: 10 μM isoproterenol 15 min; no pertussis toxin; 2.0 mM Ca2+, 200 μM spermine, 30 μM neomycin B, 2 μg/ml protamine; mean ± SEM
Protocol: This section describes measuring cyclic AMP levels. Cells were incubated as above for PTH secretion studies and at the end of the incubation, a 0.15-ml sample was taken and transferred to 0.85 ml of hot (70° C.) water and heated at this temperature for 5-10 minutes. The tubes were subsequently frozen and thawed several times and the cellular debris sedimented by centrifugation. Portions of the supernatant were acetylated and cyclic AMP concentrations determined by radioimmunoassay.
Bovine parathyroid cells were cultured for 16 hours with or without 100 ng/ml pertussis toxin. […] Each value is the mean±SEM of three experiments.

calcium receptor = target: T1, calcium receptor (Bos taurus, UniProt P35384); assay: 45Ca2+ release from Xenopus oocytes injected with bovine parathyroid mRNA; conditions: 10 mM for 20 min, compared to mock challenge with buffer
T1 construct: Whole pieces of gland were used to prepare mRNA that directs the expression of the calcium receptor in Xenopus oocytes; expressed in transfected cells; host or cells: Xenopus laevis oocytes injected with total poly(A)+ mRNA from bovine parathyroid glands
T1 sequence (P35384 20-1085): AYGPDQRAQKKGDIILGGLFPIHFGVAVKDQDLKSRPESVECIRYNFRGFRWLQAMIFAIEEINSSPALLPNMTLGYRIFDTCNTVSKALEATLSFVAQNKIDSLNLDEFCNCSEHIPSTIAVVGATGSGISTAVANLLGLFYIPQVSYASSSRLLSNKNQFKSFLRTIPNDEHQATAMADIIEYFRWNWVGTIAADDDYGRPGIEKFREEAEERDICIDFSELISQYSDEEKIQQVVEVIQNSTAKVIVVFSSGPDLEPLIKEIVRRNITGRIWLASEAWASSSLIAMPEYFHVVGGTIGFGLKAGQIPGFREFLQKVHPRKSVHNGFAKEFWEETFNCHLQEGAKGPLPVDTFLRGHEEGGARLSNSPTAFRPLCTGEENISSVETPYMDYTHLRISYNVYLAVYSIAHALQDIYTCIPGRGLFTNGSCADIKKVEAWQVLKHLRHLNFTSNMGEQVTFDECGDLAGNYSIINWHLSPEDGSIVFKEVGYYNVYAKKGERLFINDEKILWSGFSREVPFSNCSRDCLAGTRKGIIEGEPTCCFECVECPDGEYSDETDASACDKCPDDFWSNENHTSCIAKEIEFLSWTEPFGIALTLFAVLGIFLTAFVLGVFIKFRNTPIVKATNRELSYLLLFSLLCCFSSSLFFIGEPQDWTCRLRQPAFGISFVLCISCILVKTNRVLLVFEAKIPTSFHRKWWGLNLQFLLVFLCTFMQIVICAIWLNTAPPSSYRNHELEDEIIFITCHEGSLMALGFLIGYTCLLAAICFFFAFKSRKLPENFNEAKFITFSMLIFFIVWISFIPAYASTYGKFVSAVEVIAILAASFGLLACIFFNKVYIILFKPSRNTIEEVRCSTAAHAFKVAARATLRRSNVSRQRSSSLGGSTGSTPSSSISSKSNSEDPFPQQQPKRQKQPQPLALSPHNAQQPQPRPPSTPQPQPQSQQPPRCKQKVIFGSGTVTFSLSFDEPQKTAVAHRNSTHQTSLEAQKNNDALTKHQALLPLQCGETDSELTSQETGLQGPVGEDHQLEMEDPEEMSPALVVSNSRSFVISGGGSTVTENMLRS
From the text: For example, we have been able to detect calcium receptor expression in oocytes by measuring ^45Ca^2+ mobilization. […] Prior to being stimulated, oocytes were loaded with ^45Ca^2+. […] The assay is sensitive enough for use in cloning the calcium receptor, and has the advantage of a higher throughput than the electrophysiological measurement of Ca^2+-activated Cl^− current.

[1] = target: T2, parathyroid cell calcium receptor (Homo sapiens, UniProt P41180); assay: [Ca2+]i (fura-2) in human parathyroid cells; conditions: 20 μM
T2 construct: Dissociated parathyroid cells were prepared from a parathyroid adenoma obtained by surgery; endogenous in cells; host or cells: dissociated primary human parathyroid cells from patients with primary or uremic hyperparathyroidism
T2 sequence (P41180 20-1078): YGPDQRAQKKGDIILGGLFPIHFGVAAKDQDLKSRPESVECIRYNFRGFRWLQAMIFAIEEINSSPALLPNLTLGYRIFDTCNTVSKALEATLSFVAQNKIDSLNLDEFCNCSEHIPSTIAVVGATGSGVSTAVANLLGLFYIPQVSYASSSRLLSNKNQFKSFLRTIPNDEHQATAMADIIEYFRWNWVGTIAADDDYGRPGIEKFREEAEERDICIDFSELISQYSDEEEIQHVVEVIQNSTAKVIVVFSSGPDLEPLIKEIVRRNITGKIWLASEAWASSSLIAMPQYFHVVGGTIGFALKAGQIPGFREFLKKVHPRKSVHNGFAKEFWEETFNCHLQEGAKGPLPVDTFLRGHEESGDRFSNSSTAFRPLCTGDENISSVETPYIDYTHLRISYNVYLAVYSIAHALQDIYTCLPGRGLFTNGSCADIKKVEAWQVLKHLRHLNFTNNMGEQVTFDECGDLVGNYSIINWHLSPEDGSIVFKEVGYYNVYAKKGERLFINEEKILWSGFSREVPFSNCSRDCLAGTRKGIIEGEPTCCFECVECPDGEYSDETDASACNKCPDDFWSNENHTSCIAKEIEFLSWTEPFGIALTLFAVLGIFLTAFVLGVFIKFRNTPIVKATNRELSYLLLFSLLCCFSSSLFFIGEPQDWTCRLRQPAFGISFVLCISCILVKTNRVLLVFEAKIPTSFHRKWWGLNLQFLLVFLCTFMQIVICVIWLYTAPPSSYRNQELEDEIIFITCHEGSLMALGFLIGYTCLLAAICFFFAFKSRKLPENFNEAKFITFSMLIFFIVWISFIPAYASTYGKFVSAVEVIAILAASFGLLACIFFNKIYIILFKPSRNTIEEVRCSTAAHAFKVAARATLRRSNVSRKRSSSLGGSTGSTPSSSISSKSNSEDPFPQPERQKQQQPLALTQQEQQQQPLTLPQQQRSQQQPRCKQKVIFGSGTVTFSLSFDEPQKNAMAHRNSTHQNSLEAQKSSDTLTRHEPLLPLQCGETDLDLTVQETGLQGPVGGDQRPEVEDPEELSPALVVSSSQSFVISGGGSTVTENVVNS
Protocol: This section describes procedures used to obtain and treat parathyroid cells from calves and humans. […] Human parathyroid glands, were obtained from patients undergoing surgical removal of parathyroid tissue for primary or uremic hyperparathyroidism (uremic HPT), and were treated similarly to bovine tissue.
The cells were then pelleted, resuspended in the same buffer, but lacking the ester, and incubated a further 15 minutes at 37° C. The cells were subsequently washed twice with PCB containing 0.5 mM CaCl2 and 0.5% BSA and maintained at room temperature (about 20° C.) Immediately before use, the cells were diluted five-fold with prewarmed 0.5 mM CaCl2-PCB to obtain a final BSA concentration of 0.1%. The concentration of cells in the cuvette used for fluorescence recording was 1−2×10^6/ml.
The fluorescence of indicator-loaded cells was measured at 37° C. in a spectrofluorimeter (Biomedical Instrumentation Group, University of Pennsylvania, Philadelphia, Pa.) equipped with a thermostated cuvette holder and magnetic stirrer using excitation and emission wavelengths of 340 and 510 nm, respectively. […] To correct the calibration for dye leakage, cells were placed in the cuvette and stirred at 37° C. for 2-3 minutes. The cell suspension was then removed, the cells pelleted, and the supernatant returned to a clean cuvette. […] This estimate was subtracted from the apparent Fmin.

Q: With `NC[C@@H]1O[C@H](O[C@H]2[C@@H](O)[C@H](O[C@@H]3[C@@H](O)[C@H](N)C[C@H](N)[C@H]3O[C@H]3O[C@H](CN)[C@@H](O)[C@H](O)[C@H]3N)O[C@@H]2CO)[C@H](N)[C@@H](O)[C@@H]1O` [Neomycin B, neomycin B] as the molecule, how does the “cyclic AMP (% of control), control” value (Bovine parathyroid cells) read?
A: 28 ± 8 % of control

Q: What about the “increase in 45Ca2+ release” value (calcium receptor) of the same molecule?
A: 76%

Q: What about the “increase in [Ca2+]i” value [1] of the same molecule?
A: large increase
